Data published in US9181255B2, “Fused heteroaromatic pyrrolidinones as SYK inhibitors” (Takeda Pharmaceutical Company Limited, priority 2009, dated 2015).

Each compound was assayed against SYK (Homo sapiens, UniProt P43405) (assay: SYK inhibition assay: SYK-mediated phosphorylation of FAM-labeled substrate (Caliper microfluidic)). Conditions: read-out: SYK Inhibition (pIC50) (converted).
Assay type: biochemical

| SMILES | IC50 |
| --- | --- |
| N[C@H]1COCC[C@H]1Nc1nc(-c2cncs2)c2c(c1F)CNC2=O [Example 128, 6-((3R,4R)-3-Aminotetrahydro-2H-pyran-4-ylamino)-7-fluoro-4-(thiazol-5-yl)-1H-pyrrolo[3,4-c]pyridin-3(2H)-one] | 20 nM |
| N[C@H]1CCCC[C@H]1Nc1nc(-c2cccs2)c2c(c1F)CNC2=O [Example 129, 6-((1R,2S)-2-Aminocyclohexylamino)-7-fluoro-4-(thiophen-2-yl)-1H-pyrrolo[3,4-c]pyridin-3(2H)-one] | 3.98 nM |
| N[C@H]1COCC[C@H]1Nc1nc(-n2cnc(C(F)(F)F)c2)c2c(c1F)CNC2=O [Example 130, 6-((3R,4R)-3-Aminotetrahydro-2H-pyran-4-ylamino)-7-fluoro-4-(4-(trifluoromethyl)-1H-imidazol-1-yl)-1H-pyrrolo[3,4-c]pyridin-3(2H)-one] | 10000 nM |
| Cc1cn(-c2nc(N[C@@H]3CCCC[C@@H]3N)c(F)c3c2C(=O)NC3)cn1 [Example 131, 6-((1R,2S)-2-Aminocyclohexylamino)-7-fluoro-4-(4-methyl-1H-imidazol-1-yl)-1H-pyrrolo[3,4-c]pyridin-3(2H)-one] | > 20000 nM |
| Cc1cc(-c2nc(N[C@@H]3CCOC[C@@H]3N)c(F)c3c2C(=O)NC3)sn1 [Example 132, 6-((3R,4R)-3-Aminotetrahydro-2H-pyran-4-ylamino)-7-fluoro-4-(3-methylisothiazol-5-yl)-1H-pyrrolo[3,4-c]pyridin-3(2H)-one] | 3.98 nM |
| Cc1ncc(-c2nc(N[C@@H]3CCOC[C@@H]3N)c(F)c3c2C(=O)NC3)s1 [Example 133, 6-((3R,4R)-3-Aminotetrahydro-2H-pyran-4-ylamino)-7-fluoro-4-(2-methylthiazol-5-yl)-1H-pyrrolo[3,4-c]pyridin-3(2H)-one] | 25.1 nM |
| N[C@H]1COCC[C@H]1Nc1nc(-c2cnn(C3CC3)c2)c2c(c1F)CNC2=O [Example 136, 6-((3R,4R)-3-Aminotetrahydro-2H-pyran-4-ylamino)-4-(1-cyclopropyl-1H-pyrazol-4-yl)-7-fluoro-1H-pyrrolo[3,4-c]pyridin-3(2H)-one] | 31.6 nM |
